Test results as given in ChEMBL document CHEMBL4118264, “Selective synthesis of 7-O-substituted luteolin derivatives and their melanonenesis and proliferation inhibitory activity in B16 melanoma cells” (2018).

How the values were obtained:
Format in all cases: functional
[1] = system: B16; assay: Antiproliferative activity against mouse B16 cells assessed as cell proliferation level at 730 uM after 72 hrs by MTT assay relative to control
[2] = system: B16; assay: Inhibition of melanogenesis in mouse B16 cells assessed as extracellular melanogenesis activity at 730 uM after 72 hrs relative to control; design: scale not given: the % may be the effect or the level left
[3] = system: B16; assay: Inhibition of melanogenesis in mouse B16 cells assessed as intracellular melanogenesis activity at 730 uM after 72 hrs relative to control; design: scale not given: the % may be the effect or the level left
[4] = system: B16; assay: Antiproliferative activity against mouse B16 cells assessed as cell proliferation level at 6.25 uM after 72 hrs by MTT assay relative to control
[5] = system: B16; assay: Inhibition of melanogenesis in mouse B16 cells assessed as extracellular melanogenesis activity at 6.25 uM after 72 hrs relative to control; design: scale not given: the % may be the effect or the level left
[6] = system: B16; assay: Inhibition of melanogenesis in mouse B16 cells assessed as intracellular melanogenesis activity at 12.5 uM after 72 hrs relative to control; design: scale not given: the % may be the effect or the level left
[7] = system: B16; assay: Inhibition of melanogenesis in mouse B16 cells assessed as extracellular melanogenesis activity at 12.5 uM after 72 hrs relative to control; design: scale not given: the % may be the effect or the level left
[8] = system: B16; assay: Inhibition of melanogenesis in mouse B16 cells assessed as intracellular melanogenesis activity at 6.25 uM after 72 hrs relative to control; design: scale not given: the % may be the effect or the level left
[9] = system: B16; assay: Antiproliferative activity against mouse B16 cells assessed as cell proliferation level at 25 uM after 72 hrs by MTT assay relative to control
[10] = system: B16; assay: Antiproliferative activity against mouse B16 cells assessed as cell proliferation level at 12.5 uM after 72 hrs by MTT assay relative to control
[11] = system: B16; assay: Antiproliferative activity against mouse B16 cells assessed as cell proliferation level at 50 uM after 72 hrs by MTT assay relative to control
[12] = system: B16; assay: Inhibition of melanogenesis in mouse B16 cells assessed as intracellular melanogenesis activity at 50 uM after 72 hrs relative to control; design: scale not given: the % may be the effect or the level left
[13] = system: B16; assay: Inhibition of melanogenesis in mouse B16 cells assessed as extracellular melanogenesis activity at 50 uM after 72 hrs relative to control; design: scale not given: the % may be the effect or the level left
[14] = system: B16; assay: Inhibition of melanogenesis in mouse B16 cells assessed as extracellular melanogenesis activity at 25 uM after 72 hrs relative to control; design: scale not given: the % may be the effect or the level left
[15] = system: B16; assay: Inhibition of melanogenesis in mouse B16 cells assessed as intracellular melanogenesis activity at 25 uM after 72 hrs relative to control; design: scale not given: the % may be the effect or the level left

SMILES | Activity [1] | Activity [2] | Activity [3] | Activity [4] | Activity [5] | Activity [6] | Activity [7] | Activity [8] | Activity [9] | Activity [10] | Activity [11] | Activity [12] | Activity [13] | Activity [14] | Activity [15]
OC[C@H]1O[C@@H](Oc2ccc(O)cc2)[C@H](O)[C@@H](O)[C@@H]1O [ARBUTIN] | 105% | 45% | 89% |  |  |  |  |  |  |  |  |  |  |  | 
COc1cc(O)c2c(=O)cc(-c3ccc(O)c(O)c3)oc2c1 |  |  |  | 98% | 107% | 87% | 51% | 108% | 55% | 85% | 41% | 50% | 16% | 14% | 50%
O=c1cc(-c2ccc(O)c(O)c2)oc2cc(O)cc(O)c12 [LUTEOLIN] |  |  |  | 106% | 114% | 118% | 109% | 122% | 68% | 110% | 34% | 55% | 16% | 15% | 66%
